Our source for the IC50 values is patent US20150344457A1, “METHODS OF INHIBITING PRMT5” (EPIZYME, INC., priority 2012, published 2015).

The target of the assay is T1, PRMT5/MEP50 (Homo sapiens, UniProt O14744).
T1 construct: Expressed full-length human Flag-PRMT5/6His-MeP50 protein complex was purified; made in house; host or cells: Spodoptera frugiperda (SF9) insect cells, baculovirus (pDEST8)
The assay is described as follows: PRMT5 Biochemical Assay (PRMT5/MEP50 enzyme assay on peptide substrate, 3H-SAM Flashplate). The note with it: Table D-2; read-out: Biochemical IC50.

T1 sequence (O14744 with tags, fused parts or gaps): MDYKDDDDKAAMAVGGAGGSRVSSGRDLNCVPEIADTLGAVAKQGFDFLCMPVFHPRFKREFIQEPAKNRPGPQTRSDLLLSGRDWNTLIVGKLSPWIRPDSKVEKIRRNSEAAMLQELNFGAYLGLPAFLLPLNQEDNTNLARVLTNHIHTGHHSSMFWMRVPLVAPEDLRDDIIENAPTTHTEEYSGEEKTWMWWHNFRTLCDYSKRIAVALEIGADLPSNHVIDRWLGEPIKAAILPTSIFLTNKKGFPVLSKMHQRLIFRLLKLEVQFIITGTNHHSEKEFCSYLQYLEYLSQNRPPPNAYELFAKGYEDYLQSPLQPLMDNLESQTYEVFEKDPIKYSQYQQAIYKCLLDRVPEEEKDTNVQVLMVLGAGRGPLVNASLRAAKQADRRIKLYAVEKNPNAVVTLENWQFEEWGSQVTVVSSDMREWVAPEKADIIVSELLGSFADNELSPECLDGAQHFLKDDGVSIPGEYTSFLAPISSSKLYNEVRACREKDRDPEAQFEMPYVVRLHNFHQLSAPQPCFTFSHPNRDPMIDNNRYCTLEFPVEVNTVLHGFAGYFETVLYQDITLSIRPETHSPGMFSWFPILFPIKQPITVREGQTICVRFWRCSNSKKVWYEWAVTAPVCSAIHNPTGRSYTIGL
T1 sequence (Q9BQA1 with tags, fused parts or gaps partner limits assumed): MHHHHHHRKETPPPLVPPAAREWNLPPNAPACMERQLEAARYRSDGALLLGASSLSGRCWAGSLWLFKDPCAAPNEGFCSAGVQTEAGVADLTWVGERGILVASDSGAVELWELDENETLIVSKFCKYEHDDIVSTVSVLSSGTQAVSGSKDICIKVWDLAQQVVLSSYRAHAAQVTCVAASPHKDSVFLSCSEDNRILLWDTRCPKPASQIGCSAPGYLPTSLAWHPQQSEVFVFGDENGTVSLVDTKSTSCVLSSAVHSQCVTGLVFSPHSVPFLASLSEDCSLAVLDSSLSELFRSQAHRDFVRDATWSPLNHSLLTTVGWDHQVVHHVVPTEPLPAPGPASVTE

`OC(CNc1cc(-c2ccc3ncn(C4CCNCC4)c3c2)ccn1)CN1CCc2ccccc2C1` (stereo not shown) [Compound D241]: the IC50 was less than 100 nM.

For `OC(COc1cccc(-c2ccc3ncn(C4CCNC4)c3c2)c1)CN1CCc2ccccc2C1` (stereo not shown) [Compound D209], the IC50 was less than 100 nM.

As to `Cn1cnc2ccc(-c3cc(NCC(O)CN4CCc5ccccc5C4)n[nH]3)cc21` (stereo not shown) [Compound D271], the half-maximal inhibitory concentration (IC50) is 101 to 1000 nM.

Take `Cn1cnc2ccc(-c3ccnc(NCC(O)CN4CCc5ccccc5C4)c3)nc21` (stereo not shown) [Compound D238]: the half-inhibitory concentration (IC50) was less than 100 nM.

In the case of `COc1ccc(-c2cccc(OCC(O)CN3CCc4ccccc4C3)c2)c(Cl)c1` (stereo not shown) [Compound D88], the IC50 lay in the range of 101 to 1000 nM.

As to `Cn1ncc2c1CN(c1cccc(OCC(O)CN3CCc4ccccc4C3)c1)CC2` (stereo not shown) [Compound D216], the IC50 was in the range of 101 to 1000 nM.

As to `CC(=O)N1CCC(n2ccc3cnc(-c4cccc(OCC(O)CN5CCc6ccccc6C5)c4)nc32)CC1` (stereo not shown) [Compound D243], the IC50 was 101 to 1000 nM.
